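Grown in 96-well plates, cells were treated for 48 hours with each compound at five concentrations. Insufficient inhibition: endpoint recorded as highest concentration tested. Abbreviation: GI50, concentration required for 50% inhibition of growth.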 Active and inactive are the calls of the source. No stated cut-off is given here; in the data, active = GI50 up to about 1.1 µM and inactive = higher.
Key:
Test in all cases: DTP human tumour cell line panel, 48 h
[1] = test system: TK-10
[2] = test system: T47D
[3] = test system: EKVX
[4] = test system: Malme-3M
[5] = test system: OVCAR-4
[6] = test system: RPMI-8226
[7] = test system: HCC 2998
[8] = test system: NCI-H460
[9] = test system: DU-145
[10] = test system: HL-60
[11] = test system: 786-0
[12] = test system: UACC-62
[13] = test system: MCF7
[14] = test system: HOP-62
[15] = test system: A549
[16] = test system: MDA-MB-231
[17] = test system: A498
[18] = test system: HT-29
[19] = test system: BT-549
[20] = test system: IGROV-1
[21] = test system: SR
[22] = test system: ACHN
[23] = test system: CCRF-CEM
[24] = test system: SN12C
[25] = test system: OVCAR-8
[26] = test system: PC-3
[27] = test system: NCI-H23
[28] = test system: K562
[29] = test system: OVCAR-3
[30] = test system: U-251
[31] = test system: SW-620
[32] = test system: SF-268
[33] = test system: SNB-75
[34] = test system: MDA-N
[35] = test system: SF-295
[36] = test system: NCI/ADR-RES
[37] = test system: MDA-MB-435
[38] = test system: HOP-92
[39] = test system: SK-MEL-5
[40] = test system: SK-MEL-28
[41] = test system: NCI-H226
[42] = test system: OVCAR-5
[43] = test system: SK-OV-3
[44] = test system: UACC-257
[45] = test system: MOLT-4
[46] = test system: COLO 205
[47] = test system: SNB-19
[48] = test system: HCT-15
[49] = test system: UO-31
[50] = test system: HCT-116
[51] = test system: M14

## O=C(O)c1cc(O)c2c(c1)Cc1cccc(O)c1C2=O
[1]
  GI50: 34.4 µM (inactive)
[2]
  GI50: 38.6 µM (inactive)
[3]
  GI50: 22.1 µM (inactive)
[4]
  GI50: 19.7 µM (inactive)
[5]
  GI50: 38 µM (inactive)
[6]
  GI50: 21.9 µM (inactive)
[7]
  GI50: 41.4 µM (inactive)
[8]
  GI50: 23.3 µM (inactive)
[9]
  GI50: 36.5 µM (inactive)
[10]
  GI50: 21.1 µM (inactive)
[11]
  GI50: 30.5 µM (inactive)
[12]
  GI50: 19.1 µM (inactive)
[13]
  GI50: 30.1 µM (inactive)
[14]
  GI50: 19.1 µM (inactive)
[15]
  GI50: 31.4 µM (inactive)
[16]
  GI50: 21.5 µM (inactive)
[17]
  GI50: 26.9 µM (inactive)
[18]
  GI50: 42.9 µM (inactive)
[19]
  GI50: 30.5 µM (inactive)
[20]
  GI50: > 10 µM (inactive)
[21]
  GI50: 26.1 µM (inactive)
[22]
  GI50: 15.4 µM (inactive)
[23]
  GI50: 29.4 µM (inactive)
[24]
  GI50: 16.6 µM (inactive)
[25]
  GI50: 21.3 µM (inactive)
[26]
  GI50: 29.2 µM (inactive)
[27]
  GI50: 28.1 µM (inactive)
[28]
  GI50: 40 µM (inactive)
[29]
  GI50: 17.9 µM (inactive)
[30]
  GI50: 17.6 µM (inactive)
[31]
  GI50: 38.5 µM (inactive)
[32]
  GI50: 25.4 µM (inactive)
[33]
  GI50: 14.1 µM (inactive)
[34]
  GI50: > 10 µM (inactive)
[35]
  GI50: 20.3 µM (inactive)
[36]
  GI50: 24.9 µM (inactive)
[37]
  GI50: 33.6 µM (inactive)
[38]
  GI50: 17.2 µM (inactive)
[39]
  GI50: 21.1 µM (inactive)
[40]
  GI50: 34.1 µM (inactive)
[41]
  GI50: 24.1 µM (inactive)
[42]
  GI50: 29.9 µM (inactive)
[43]
  GI50: 30.5 µM (inactive)
[44]
  GI50: 26.7 µM (inactive)
[45]
  GI50: 22.7 µM (inactive)
[46]
  GI50: 24.2 µM (inactive)
[47]
  GI50: 28.6 µM (inactive)
[48]
  GI50: 17.2 µM
[49]
  GI50: 17.4 µM (inactive)
[50]
  GI50: 23.9 µM (inactive)
[51]
  GI50: 23.4 µM (inactive)

— ChEMBL document CHEMBL1201862, “PubChem BioAssay data set” (2004)
